Source: BindingDB's records for doi:10.7270/Q20K275C (The Scripps Research Institute Molecular Screening Center, 2012)

Target: Arf-GAP with SH3 domain, ANK repeat and PH domain-containing protein 1 (Homo sapiens, UniProt Q9ULH1)
Sequence (Q9ULH1 whole entry, the tested form may be a part): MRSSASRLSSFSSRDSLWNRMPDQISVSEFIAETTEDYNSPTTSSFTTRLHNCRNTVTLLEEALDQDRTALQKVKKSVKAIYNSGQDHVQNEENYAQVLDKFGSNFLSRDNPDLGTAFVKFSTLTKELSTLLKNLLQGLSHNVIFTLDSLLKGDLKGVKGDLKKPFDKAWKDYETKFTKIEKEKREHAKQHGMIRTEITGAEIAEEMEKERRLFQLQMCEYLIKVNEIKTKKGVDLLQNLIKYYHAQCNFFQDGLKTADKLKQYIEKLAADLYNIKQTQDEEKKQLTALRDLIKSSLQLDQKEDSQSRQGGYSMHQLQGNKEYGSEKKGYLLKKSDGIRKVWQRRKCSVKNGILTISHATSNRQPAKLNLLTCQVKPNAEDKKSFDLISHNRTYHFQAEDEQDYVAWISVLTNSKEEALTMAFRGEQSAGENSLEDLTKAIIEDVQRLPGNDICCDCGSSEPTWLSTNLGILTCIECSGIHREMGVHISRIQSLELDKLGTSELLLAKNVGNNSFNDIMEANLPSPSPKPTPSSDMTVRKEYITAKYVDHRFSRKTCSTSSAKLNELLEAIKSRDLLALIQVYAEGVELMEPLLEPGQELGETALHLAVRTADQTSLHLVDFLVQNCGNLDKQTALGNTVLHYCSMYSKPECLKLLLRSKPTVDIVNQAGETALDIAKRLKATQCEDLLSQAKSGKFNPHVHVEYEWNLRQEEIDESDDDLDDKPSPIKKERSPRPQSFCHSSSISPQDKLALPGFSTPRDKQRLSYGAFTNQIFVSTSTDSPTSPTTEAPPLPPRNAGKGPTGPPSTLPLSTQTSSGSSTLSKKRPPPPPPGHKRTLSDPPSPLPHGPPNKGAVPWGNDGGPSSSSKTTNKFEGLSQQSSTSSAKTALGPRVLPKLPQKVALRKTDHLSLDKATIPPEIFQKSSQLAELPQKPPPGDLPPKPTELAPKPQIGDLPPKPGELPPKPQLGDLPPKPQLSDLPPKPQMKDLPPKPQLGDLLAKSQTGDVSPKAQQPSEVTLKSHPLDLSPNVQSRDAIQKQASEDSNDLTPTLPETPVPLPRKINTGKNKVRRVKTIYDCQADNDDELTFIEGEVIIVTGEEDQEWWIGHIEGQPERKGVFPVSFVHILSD

IC50: > 165 µM
Compound: O=C(Nc1cccc(-c2csc(Nc3ccc(Cl)cc3)n2)c1)c1ccccc1
